Data: patent US20070219159A1, “CYCLODEXTRIN COMPOSITIONS AND METHODS OF TREATING VIRAL INFECTIONS” (priority 2002, published 2007)

Key:
HSV-1 strain KOS1.1 = test: CPE reduction assay in Vero cells, HSV-1; type: cell-based
d27-lacZ1 (β-gal HSV) = test: Semi-quantitative PCR of intracellular HSV DNA (HSV entry); settings: MOI 0.01 or 0.1, β-CD 7.2 mg/ml pre-, 5.4 mg/ml post-infection, versus untreated infected cells
[1] = tested on: dlsptk (an ACV-resistant, tk deletion mutant of HSV-1); type: cell-based; settings: MOI 10

**Q.** Which results are given for `OC[C@H]1O[C@@H]2O[C@H]3[C@H](O)[C@@H](O)[C@@H](O[C@H]4[C@H](O)[C@@H](O)[C@@H](O[C@H]5[C@H](O)[C@@H](O)[C@@H](O[C@H]6[C@H](O)[C@@H](O)[C@@H](O[C@H]7[C@H](O)[C@@H](O)[C@@H](O[C@H]8[C@H](O)[C@@H](O)[C@@H](O[C@H]1[C@H](O)[C@H]2O)O[C@@H]8CO)O[C@@H]7CO)O[C@@H]6CO)O[C@@H]5CO)O[C@@H]4CO)O[C@@H]3CO` [BCD, β-cyclodextrin]?
**A.** protection of Vero cells by inhibition of viral CPE (HSV-1 strain KOS1.1; HSV-1, MOI 0.001 and 0.1, BCD 7-8 mg/ml): almost complete protection; inhibition of infection, direct microscopy and crystal violet staining (HSV-1 strain KOS1.1; HSV-1, MOI 2.0 (data not shown)): inhibited infection; anti-herpes effects at high multiplicity of infection (HSV-1 strain KOS1.1; HSV-1, MOI >50, BCD 7-8 mg/ml): exhibited anti-herpes effects; anti-HSV activity compared with acyclovir (HSV-1 strain KOS1.1; β-CD 7.2 mg/ml): comparable to acyclovir in the range of 200 to 400 μg/ml; amount of intracellular viral DNA / viral entry (d27-lacZ1 (β-gal HSV)): did not significantly alter viral entry; amount of intracellular viral DNA / viral entry (d27-lacZ1 (β-gal HSV); listed as β-CD): No significant differences; reduction of ACV-resistant virus yield ([1]; 6.4 mg/ml BCD, 24 hours): approximately 10^3 PFU; effect on yield of acyclovir-resistant dlsptk virus (FIG. 2) ([1]; 20 μM (4.5 μg/ml) ACV or 6.4 mg/ml β-CD for 24 hours): lowered the yield
